Measured values reported in US6914045B2, “Glycopeptide antibiotics” (Wyeth Holdings Corporation, priority 2001, dated 2005).

Legend:
Test in all cases: in vitro antibacterial evaluation, MIC by broth dilution
Type in all cases: cell-based
[1] = test system: Staphylococcus sp.; conditions: broth dilution, 18 hours at 35° C.; for MIC Staphylococcus aureus (GC 1131): strain GC 1131; for MIC Staphylococcus aureus (ATCC 29213): strain ATCC 29213; for MIC Staphylococcus aureus (GC 3051): strain GC 3051; for MIC Staphylococcus aureus (GC 3053): strain GC 3053; for MIC Staphylococcus aureus (GC 4541): strain GC 4541; for MIC Staphylococcus aureus (GC 4542): strain GC 4542; for MIC Staphylococcus aureus-SMITH (GC 4543): strain GC 4543; for MIC Staphylococcus aureus (GC 4544): strain GC 4544; for MIC Staphylococcus aureus (GC 4545): strain GC 4545; for MIC Staphylococcus haemolyticus (GC 4546): strain GC 4546; for MIC Coagulase Negative Staphylococcus (GC 4547): strain GC 4547; for MIC Coagulase Negative Staphylococcus (GC 4548): strain GC 4548; for MIC Coagulase Negative Staphylococcus (GC 4549): strain GC 4549; for MIC Coagulase Negative Staphylococcus (GC 4551): strain GC 4551; for MIC Coagulase Negative Staphylococcus (GC 6257): strain GC 6257
Summary of the method: (§1)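 Broth dilution per NCCLS M7-A2 in Mueller-Hinton II medium, inoculum 5×10^5 CFU/mL, antibiotic range 64-0.06 μg/mL. MIC taken as lowest concentration inhibiting growth; Gram-positive panel includes recent clinical isolates resistant to methicillin, penicillin and/or vancomycin.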

[2] = test system: Enterococcus sp.; conditions: broth dilution, 18 hours at 35° C.
Summary of the method: as §1

[3] = test system: Streptococcus sp.; conditions: broth dilution, 18 hours at 35° C.
Summary of the method: as §1

[4] = test system: Escherichia coli; conditions: 18 hours at 35° C.

Cc1ccc(Oc2cccc(C3OCC4OC(OC5C(CO)OC(Oc6ccc(CC7NC(=O)C(C(C)c8ccccc8)NC(=O)CNC(=O)C(CO)NC(=O)C(C(O)C8CNC(=N)N8C8OC(CO)C(O)C(O)C8O)NC(=O)C(C(O)C8CNC(=N)N8)NC7=O)cc6I)C(O)C5O)C(O)C(O)C4O3)c2)cc1 (stereo not shown) [Example 197]
>64 mg/L: MIC Enterococcus faecalis (ATCC 29212) [2] | MIC Enterococcus faecalis (GC 2242) [2] | MIC Enterococcus faecalis (GC 2691) [2] | MIC Enterococcus faecalis (GC 3059) [2] | MIC Enterococcus faecalis (GC 4552) [2] | MIC Enterococcus faecalis (GC 4554) [2] | MIC Enterococcus faecium (GC 4556) [2] | MIC Enterococcus faecalis (ATCC 29212) ([2]; inoculum 5×10^5 CFU/mL, strain ATCC 29212) | MIC Enterococcus faecalis (GC 2242) ([2]; inoculum 5×10^5 CFU/mL, strain GC 2242) | MIC Enterococcus faecalis (GC 2691) ([2]; inoculum 5×10^5 CFU/mL, strain GC 2691) | MIC Enterococcus faecalis (GC 3059) ([2]; inoculum 5×10^5 CFU/mL, strain GC 3059) | MIC Enterococcus faecalis (GC 4552) ([2]; inoculum 5×10^5 CFU/mL, strain GC 4552) | MIC Enterococcus faecalis (GC 4554) ([2]; inoculum 5×10^5 CFU/mL, strain GC 4554) | MIC Enterococcus faecium (GC 4556) ([2]; inoculum 5×10^5 CFU/mL, strain GC 4556)
16 mg/L: MIC Staphylococcus aureus (GC 1131) ([1]; inoculum 5×10^5 CFU/mL) | MIC Staphylococcus aureus (GC 1131) [1] | MIC Staphylococcus aureus (GC 4541) [1] | MIC Staphylococcus aureus-SMITH (GC 4543) [1] | MIC Coagulase Negative Staphylococcus (GC 4551) [1] | MIC Enterococcus avium (GC 4558) [2] | MIC Enterococcus avium (GC 4558) ([2]; inoculum 5×10^5 CFU/mL, strain GC 4558) | MIC Streptococcus agalactiae (GC 4564) [3] | MIC Streptococcus pyogenes (GC 4563) [3] | MIC Streptococcus pyogenes (GC 4563) ([3]; inoculum 5×10^5 CFU/mL, strain GC 4563) | MIC Streptococcus agalactiae (GC 4564) ([3]; inoculum 5×10^5 CFU/mL, strain GC 4564) | MIC Escherichia coli (GC 4560) [4]
8 mg/L: MIC Coagulase Negative Staphylococcus (GC 4548) [1] | MIC Coagulase Negative Staphylococcus (GC 4549) [1] | MIC Enterococcus faecium (GC 4557) [2] | MIC Enterococcus faecium (GC 4557) ([2]; inoculum 5×10^5 CFU/mL, strain GC 4557) | MIC Streptococcus pneumoniae (GC 1894) [3] | MIC Streptococcus pneumoniae (GC 4565) [3] | MIC Streptococcus pneumoniae (GC 1894) ([3]; inoculum 5×10^5 CFU/mL, strain GC 1894) | MIC Streptococcus pneumoniae (GC 4565) ([3]; inoculum 5×10^5 CFU/mL, strain GC 4565)
4 mg/L: MIC Coagulase Negative Staphylococcus (GC 6257) [1] | MIC Streptococcus pneumoniae (ATCC 6301) [3] | MIC Streptococcus pneumoniae (ATCC 6301) ([3]; inoculum 5×10^5 CFU/mL, strain ATCC 6301)
64 mg/L: MIC Staphylococcus aureus (GC 3051) [1] | MIC Staphylococcus aureus (GC 3053) [1] | MIC Staphylococcus aureus (GC 4542) [1] | MIC Enterococcus faecalis (GC 4553) [2] | MIC Enterococcus faecalis (GC 6189) [2] | MIC Enterococcus faecium (GC 2243) [2] | MIC Enterococcus faecium (GC 2243) ([2]; inoculum 5×10^5 CFU/mL, strain GC 2243) | MIC Enterococcus faecalis (GC 4553) ([2]; inoculum 5×10^5 CFU/mL, strain GC 4553) | MIC Enterococcus faecalis (GC 6189) ([2]; inoculum 5×10^5 CFU/mL, strain GC 6189) | MIC Escherichia coli (GC 4559) [4]
32 mg/L: MIC Staphylococcus aureus (ATCC 29213) [1] | MIC Staphylococcus aureus (GC 4544) [1] | MIC Staphylococcus aureus (GC 4545) [1] | MIC Staphylococcus haemolyticus (GC 4546) [1] | MIC Coagulase Negative Staphylococcus (GC 4547) [1] | MIC Escherichia coli (ATCC 25922) [4]

CC(c1ccccc1)C1NC(=O)CNC(=O)C(CO)NC(=O)C(C(O)C2CNC(=N)N2C2OC(CO)C(O)C(O)C2O)NC(=O)C(C(O)C2CNC(=N)N2)NC(=O)C(Cc2ccc(O)c(N(C)C)c2)NC1=O (stereo not drawn) [Example 12, Cyclo[glycyl-β-methylphenylalanyl-3-(dimethylamino)tyrosyl-3-(2-iminoimidazolidin-4-yl)-seryl-3-(3-hexopyranosyl-2-iminoimidazolidin-4-yl)serylseryl]]
>128 mg/L: MIC Staphylococcus aureus (ATCC 29213) [1] | MIC Staphylococcus aureus (GC 1131) [1] | MIC Staphylococcus aureus (GC 3051) [1] | MIC Staphylococcus aureus (GC 3053) [1] | MIC Staphylococcus aureus (GC 4541) [1] | MIC Staphylococcus aureus (GC 4542) [1] | MIC Staphylococcus aureus-SMITH (GC 4543) [1] | MIC Staphylococcus aureus (GC 4544) [1] | MIC Staphylococcus aureus (GC 4545) [1] | MIC Staphylococcus haemolyticus (GC 4546) [1] | MIC Coagulase Negative Staphylococcus (GC 4547) [1] | MIC Coagulase Negative Staphylococcus (GC 4548) [1] | MIC Coagulase Negative Staphylococcus (GC 4549) [1] | MIC Coagulase Negative Staphylococcus (GC 4551) [1] | MIC Coagulase Negative Staphylococcus (GC 6257) [1] | MIC Enterococcus faecalis (ATCC 29212) ([2]; strain ATCC 29212) | MIC Enterococcus faecalis (GC 2242) ([2]; strain GC 2242) | MIC Enterococcus faecium (GC 2243) ([2]; strain GC 2243) | MIC Enterococcus faecalis (GC 2691) ([2]; strain GC 2691) | MIC Enterococcus faecalis (GC 3059) ([2]; strain GC 3059) | MIC Enterococcus faecalis (GC 4552) ([2]; strain GC 4552) | MIC Enterococcus faecalis (GC 4553) ([2]; strain GC 4553) | MIC Enterococcus faecalis (GC 4554) ([2]; strain GC 4554) | MIC Enterococcus faecium (GC 4556) ([2]; strain GC 4556) | MIC Enterococcus faecium (GC 4557) ([2]; strain GC 4557) | MIC Enterococcus faecalis (GC 6189) ([2]; strain GC 6189) | MIC Streptococcus pneumoniae (ATCC 6301) ([3]; strain ATCC 6301) | MIC Streptococcus pyogenes (GC 4563) ([3]; strain GC 4563) | MIC Escherichia coli (ATCC 25922) ([4]; strain ATCC 25922, broth dilution) | MIC Escherichia coli (GC 4559) ([4]; strain GC 4559, broth dilution)
128 mg/L: MIC Enterococcus avium (GC 4558) ([2]; strain GC 4558) | MIC Streptococcus pneumoniae (GC 1894) ([3]; strain GC 1894) | MIC Streptococcus agalactiae (GC 4564) ([3]; strain GC 4564) | MIC Streptococcus pneumoniae (GC 4565) ([3]; strain GC 4565) | MIC Escherichia coli (GC 4560) ([4]; strain GC 4560, broth dilution)
